Where no end group is shown, it is not given here.
Tests used:
[1] = test system: neo-antigen-specific CD8+ T cells; assay: Intratumoral injection into established MC38 tumors: tetramer staining of PBMCs; assay type: in vivo, C57BL/6 mice; settings: MC38 tumor-bearing mice, day 7 after first injection
Experimental: (§1) C57BL/6 mice were subcutaneously injected with 5×10^5 MC38 colon carcinoma cells (a gift from W. Zou, University of Michigan) into the right flank and randomly sorted for treatment after 9 days when the tumor volumes reached approximately 50-70 mm^3. Fifty μl PBS solution of ASMTNMELM, CpG, ASMTNMELM+CpG, PEI-SS-CSSASMTNMELM+CpG (10 μg ASMTNMELM and 15 μg CpG), or blank PBS (50 μl) were directly injected into tumor every week for total three times. PBMCs were collected on day 7 after the first sample injection and tetramer staining was performed for flow cytometric analysis of neo-antigen-specific CD8+ T cells. The sizes of the tumors were measured every three days using a digital caliper, and the tumor volume was estimated by ellipsoidal calculation as V=(width)^2×length×π/6. The mice were euthanized when the tumors reached the maximum permitted size (1.5 cm in any dimension) or ulcerations occurred.

[2] = test system: MC38 tumors; assay: In vivo cancer immunotherapy against established MC38 tumors: tumor volume and survival; set-up: species or system C57BL/6 mice; settings: three weekly intratumoral injections
Experimental: as §1

[3] = test system: BMDCs; assay: BMDC cytotoxicity (CCK-8 viability); assay type: cell-based; settings: 24 h incubation, concentration as high as 100 μg/ml
Experimental: (§2) BMDCs were plated at a density of 1×10^5 cells/well in 96 well plates in RPMI 1640 supplemented with 10% FBS and 1% PS, and incubated overnight at 37° C. under 5% CO2. For cytotoxicity assessment, cells were incubated with either free form (CSSASMNTMELM) or PEI conjugate (PEI-SS-CSSASMTNMELM) of the neo-antigen peptide for 24 h at concentrations of 1, 5, 10, 20, 50, 100 μg/ml. The viability was measured by adding CCK-8 to each well of the plate according to manufacturer's instruction followed by absorbance measurement at 450 nm using a microplate reader after 2 h incubation. Relative viability was calculated as to the ratio of the absorbance to the non-sample treated cells (0 μg/ml). To investigate BMDC activation, cells were treated with PBS or PEI-SS-CSSASMTNMELM, PBS+CpG, PEI-SS-CSSASMTNMELM+CpG (2 μg/ml PEI-SS-CSSASMTNMELM and 1 μg/ml CpG) for 2 h. The fresh cell culture media were placed after sample washing and collected for cytokine analysis after further 24 h incubation. The concentration of IL-12p70 in the media was measured using ELISA kit by following the manufacturer's instruction.

[4] = test system: BMDCs; assay: BMDC activation: IL-12p70 secretion (ELISA); assay type: cell-based; settings: alone, w/o CpG; 2 μg/ml, 2 h
Experimental: as §2

[5] = test system: BMDCs; assay: BMDC activation: expression of co-stimulatory markers CD86 and CD40 by flow cytometry; assay type: cell-based, C57BL/6 mice; settings: conjugate alone, w/o CpG; 1% modification, 2 nmol SIINFEKL/ml, 24 h
Experimental: (§3) Femur and tibia were harvested from C57BL/6 mice. Cells were collected by flushing bone marrow with a syringe, passing the cell suspension through a cell strainer (mesh size=40 μm), followed by centrifugation (200×g, 5 min). Cells were then seeded into non-tissue culture treated petri-dishes at a density of 2×10^6 cells/ml in DC culture media (RPMI 1640 supplemented with 10% FBS, 1% penicillin-streptomycin, 50 μM β-mercaptoethanol, and 20 ng/ml GM-CSF), cultured at 37° C. with 5% CO2. Culture media were refreshed on days 3, 6, and 8, and BMDCs were used on days 8-12.
(§4) BMDCs were seeded at a density of 8×10^5 cells/ml into 12-well plates. Cells were incubated with PGA120k-MAL-CSSSIINFEKL or PGA120k-SS-CSSSIINFEKL (1% modification of carboxyl groups, 2 nmol SIINFEKL/ml) w/or w/o 0.5 μg/ml CpG in 1 ml BMDC culture media for 24 h. Cells were harvested, blocked with anti-CD16/32 at room temperature for 10 min, and then stained with anti-CD11c-PECy7, anti-CD40-APC, anti-CD86-PE, or anti-SIINFEKL-H-2K^b-PE at room temperature for 30 min. Finally, cells were washed and resuspended in 2 μg/ml DAPI solution and analyzed by a flow cytometer (Cyan 5, Beckman Coulter).

[6] = test system: BMDCs; assay: Antigen cross-presentation: presentation of SIINFEKL on DCs by flow cytometry; assay type: cell-based, C57BL/6 mice; settings: 2 nmol SIINFEKL/ml, 24 h
Experimental: as §3, §4

[7] = test system: OT-I T cells; assay: Proliferation of antigen-specific CD8+ T cells in vitro (CFSE dilution); assay type: cell-based, OT-I mice; settings: BMDCs pre-activated 24 h, 0.5 nmol SIINFEKL/ml, in the presence of 0.5 μg/ml CpG; co-culture 3 days
Experimental: SIINFEKL-specific CD8^+ T cells were isolated from OT-I mice using an EasySep™ Mouse CD8^+ T Cell Isolation Kit (STEMCELL Technologies, Cambridge, Mass.), and stained by CFSE. 5×10^4 BMDCs were seeded into 96-well plates, and incubated with PGA120k conjugates (1% modification of carboxyl groups, 0.5 nmol SIINFEKL/ml) w/or w/o 0.5 μg/ml CpG for 24 h. BMDCs were then washed by PBS, followed by co-culture with 5×10^4 CFSE-labeled OT-I T cells for 3 days. Cells were then harvested, blocked with anti-CD16/32, and stained with anti-CD8-APC on ice for 30 min. Cells were washed and resuspended in 2 μg/ml DAPI solution and analyzed for fluorescence dilutions of CFSE by flow cytometry.

Substance: 5′-tccatgacgttcctgacgtt-3′ [CpG]
- neo-antigen-specific CD8+ T cell response [1]: failed to elicit
- survival rates [2]: ~20%
- tumor progression [2]: slowed tumor progression

Substance: ASMTNMELM [neo-antigen]
- neo-antigen-specific CD8+ T cell response [1]: failed to elicit
- time by which all animals succumbed to tumors [2]: ≤ 50 days

Substance: CSSASMTNMELM [free peptide, CSSASMTNMELM]
- BMDC viability [3]: maintained their viability

Substance: PEI-SS-CSSASMTNMELM: PEI (MW 25,000), PEGylated, disulfide-linked via SPDP to neo-antigen peptide CSSASMTNMELM (PEGylated PEI disulfide-linked via SPDP)
- BMDC viability [3]: maintained their viability
- activation of BMDCs (secretion of IL-12p70) [4]: failed to induce activation of BMDCs

Substance: PGA-MAL-CSSSIINFEKL: 120 kD poly(L-glutamic acid) linked by non-sensitive maleimide-thiol bond to peptide CSSSIINFEKL, 1% modification of carboxyl groups (not fully specified; poly(L-glutamic acid) 120 kD maleimide-thiol conjugate)
- activation of DCs (expression of CD86 and CD40) [5]: failed to activate DCs

Substance: PGA-SS-CSSSIINFEKL: 120 kD poly(L-glutamic acid) linked by reduction-sensitive disulfide bond to peptide CSSSIINFEKL, 1% modification of carboxyl groups (not fully specified; poly(L-glutamic acid) 120 kD disulfide conjugate)
- CD40 expression in DCs [5]: slightly increased CD40 expression
- presentation of SIINFEKL on DCs ([6]; w/o CpG, compared with soluble peptide and PGA-MAL-CSSSIINFEKL): significantly higher presentation of SIINFEKL on DCs
- presentation of SIINFEKL on DCs ([6]; with 0.5 μg/ml CpG): further increased by CpG

Substance: SIINFEKL [soluble peptide, model antigen peptide]
- proliferation of OT-I T cells [7]: > 60%
